Measured values reported in PubChem BioAssay (NCI).
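How tested: cells in 96-well plates exposed to compound for 48 hours at five concentrations. TGI: total growth inhibition.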

Assays:
Assay in all cases: DTP human tumour cell line panel, 48 h
786-0 renal = tested on: 786-0 renal
A498 renal = tested on: A498 renal
A549 NSCLC = tested on: A549 NSCLC
ACHN renal = tested on: ACHN renal
BT-549 breast = tested on: BT-549 breast
CAKI-1 renal = tested on: CAKI-1 renal
CCRF-CEM leukemia = tested on: CCRF-CEM leukemia
COLO 205 colon = tested on: COLO 205 colon
DU-145 prostate = tested on: DU-145 prostate
EKVX NSCLC = tested on: EKVX NSCLC
HCC-2998 colon = tested on: HCC-2998 colon
HCT-116 colon = tested on: HCT-116 colon
HCT-15 colon = tested on: HCT-15 colon
HL-60(TB) leukemia = tested on: HL-60(TB) leukemia
HOP-62 NSCLC = tested on: HOP-62 NSCLC
HOP-92 NSCLC = tested on: HOP-92 NSCLC
HS 578T breast = tested on: HS 578T breast
HT29 colon = tested on: HT29 colon
IGROV1 ovarian = tested on: IGROV1 ovarian
K-562 leukemia = tested on: K-562 leukemia
KM12 colon = tested on: KM12 colon
LOX IMVI melanoma = tested on: LOX IMVI melanoma
M14 melanoma = tested on: M14 melanoma
MALME-3M melanoma = tested on: MALME-3M melanoma
MCF7 breast = tested on: MCF7 breast
MDA-MB-231 breast = tested on: MDA-MB-231 breast
MDA-MB-435 = tested on: MDA-MB-435
MDA-N = tested on: MDA-N
NCI-H226 lung = tested on: NCI-H226 lung
NCI-H23 lung = tested on: NCI-H23 lung
NCI-H460 lung = tested on: NCI-H460 lung
NCI-H522 lung = tested on: NCI-H522 lung
NCI/ADR-RES ovarian = tested on: NCI/ADR-RES ovarian
OVCAR-3 ovarian = tested on: OVCAR-3 ovarian
OVCAR-4 ovarian = tested on: OVCAR-4 ovarian
OVCAR-5 ovarian = tested on: OVCAR-5 ovarian
OVCAR-8 ovarian = tested on: OVCAR-8 ovarian
PC-3 prostate = tested on: PC-3 prostate
RPMI-8226 leukemia = tested on: RPMI-8226 leukemia
RXF 393 renal = tested on: RXF 393 renal
SF-268 CNS = tested on: SF-268 CNS
SF-295 CNS = tested on: SF-295 CNS
SK-MEL-2 melanoma = tested on: SK-MEL-2 melanoma
SK-MEL-28 melanoma = tested on: SK-MEL-28 melanoma
SK-MEL-5 melanoma = tested on: SK-MEL-5 melanoma
SK-OV-3 ovarian = tested on: SK-OV-3 ovarian
SN12C renal = tested on: SN12C renal
SNB-19 CNS = tested on: SNB-19 CNS
SNB-75 CNS = tested on: SNB-75 CNS
SR leukemia = tested on: SR leukemia
SW-620 colon = tested on: SW-620 colon
TK-10 renal = tested on: TK-10 renal
U251 CNS = tested on: U251 CNS
UACC-257 melanoma = tested on: UACC-257 melanoma
UACC-62 melanoma = tested on: UACC-62 melanoma
UO-31 renal = tested on: UO-31 renal

Question: `Cc1nc(Cl)c2sc(=S)n(-c3ccc(F)cc3)c2n1` was tested. Which TGI (786-0 renal) did it give?
Answer: Its TGI is 11.9 µM.

Question: What about the TGI (A498 renal) of the same molecule?
Answer: The TGI was 7.23 µM.

Question: And the TGI (A549 NSCLC)?
Answer: The TGI was 25.4 µM.

Question: And the TGI (ACHN renal)?
Answer: The TGI was 26.8 µM.

Question: What about the TGI (BT-549 breast) of the same molecule?
Answer: The TGI was 12.1 µM.

Question: What about the TGI (CAKI-1 renal) of the same molecule?
Answer: Its TGI is 3.11 µM.

Question: What about the TGI (CCRF-CEM leukemia) of the same molecule?
Answer: The TGI was > 100 µM.

Question: And the TGI (COLO 205 colon)?
Answer: Its TGI is 16.6 µM.

Question: What about the TGI (DU-145 prostate) of the same molecule?
Answer: The TGI was 3.82 µM.

Question: What about the TGI (EKVX NSCLC) of the same molecule?
Answer: Its TGI is 32.9 µM.

Question: And the TGI (HCC-2998 colon)?
Answer: The TGI was 20.3 µM.

Question: What about the TGI (HCT-116 colon) of the same molecule?
Answer: Its TGI is 4.15 µM.

Question: And the TGI (HCT-15 colon)?
Answer: The TGI was 15.1 µM.

Question: What about the TGI (HL-60(TB) leukemia) of the same molecule?
Answer: Its TGI is 43.2 µM.

Question: What about the TGI (HOP-62 NSCLC) of the same molecule?
Answer: The TGI was 9.73 µM.

Question: And the TGI (HOP-92 NSCLC)?
Answer: The TGI was 33.1 µM.

Question: And the TGI (HS 578T breast)?
Answer: Its TGI is 6.24 µM.

Question: What about the TGI (HT29 colon) of the same molecule?
Answer: Its TGI is 5.51 µM.

Question: And the TGI (IGROV1 ovarian)?
Answer: The TGI was 3.53 µM.

Question: And the TGI (K-562 leukemia)?
Answer: The TGI was > 100 µM.

Question: What about the TGI (KM12 colon) of the same molecule?
Answer: Its TGI is 25.3 µM.

Question: And the TGI (LOX IMVI melanoma)?
Answer: The TGI was 3.61 µM.

Question: What about the TGI (M14 melanoma) of the same molecule?
Answer: Its TGI is 8.38 µM.

Question: What about the TGI (MALME-3M melanoma) of the same molecule?
Answer: The TGI was 23.9 µM.

Question: What about the TGI (MCF7 breast) of the same molecule?
Answer: Its TGI is 13.2 µM.

Question: And the TGI (MDA-MB-231 breast)?
Answer: Its TGI is 20.7 µM.

Question: And the TGI (MDA-MB-435)?
Answer: The TGI was 8.68 µM.

Question: What about the TGI (MDA-N) of the same molecule?
Answer: Its TGI is 3.95 µM.

Question: And the TGI (NCI-H226 lung)?
Answer: Its TGI is 34.6 µM.

Question: And the TGI (NCI-H23 lung)?
Answer: Its TGI is 2.52 µM.

Question: What about the TGI (NCI-H460 lung) of the same molecule?
Answer: Its TGI is 26.5 µM.

Question: And the TGI (NCI-H522 lung)?
Answer: Its TGI is 10.9 µM.

Question: What about the TGI (NCI/ADR-RES ovarian) of the same molecule?
Answer: The TGI was 25.5 µM.

Question: What about the TGI (OVCAR-3 ovarian) of the same molecule?
Answer: The TGI was 7.02 µM.

Question: What about the TGI (OVCAR-4 ovarian) of the same molecule?
Answer: Its TGI is 31.4 µM.

Question: What about the TGI (OVCAR-5 ovarian) of the same molecule?
Answer: Its TGI is 24.1 µM.

Question: And the TGI (OVCAR-8 ovarian)?
Answer: Its TGI is 33.8 µM.

Question: And the TGI (PC-3 prostate)?
Answer: The TGI was 36.8 µM.

Question: What about the TGI (RPMI-8226 leukemia) of the same molecule?
Answer: Its TGI is > 100 µM.

Question: And the TGI (RXF 393 renal)?
Answer: The TGI was 21.1 µM.

Question: And the TGI (SF-268 CNS)?
Answer: Its TGI is 5.29 µM.

Question: And the TGI (SF-295 CNS)?
Answer: The TGI was 22.8 µM.

Question: What about the TGI (SK-MEL-2 melanoma) of the same molecule?
Answer: Its TGI is 25.4 µM.

Question: What about the TGI (SK-MEL-28 melanoma) of the same molecule?
Answer: The TGI was 10.6 µM.

Question: And the TGI (SK-MEL-5 melanoma)?
Answer: Its TGI is 10.3 µM.

Question: And the TGI (SK-OV-3 ovarian)?
Answer: Its TGI is 25.9 µM.

Question: And the TGI (SN12C renal)?
Answer: The TGI was 18.4 µM.

Question: And the TGI (SNB-19 CNS)?
Answer: The TGI was 5.06 µM.

Question: What about the TGI (SNB-75 CNS) of the same molecule?
Answer: Its TGI is 18.1 µM.

Question: And the TGI (SR leukemia)?
Answer: The TGI was 2.99 µM.

Question: What about the TGI (SW-620 colon) of the same molecule?
Answer: The TGI was 14.1 µM.

Question: And the TGI (TK-10 renal)?
Answer: The TGI was 12.8 µM.

Question: And the TGI (U251 CNS)?
Answer: Its TGI is 17.7 µM.

Question: And the TGI (UACC-257 melanoma)?
Answer: The TGI was 10.5 µM.

Question: What about the TGI (UACC-62 melanoma) of the same molecule?
Answer: Its TGI is 24 µM.

Question: And the TGI (UO-31 renal)?
Answer: Its TGI is 3.17 µM.
